{"source": "patent US20220062317A1", "about": "“NA+/K+ ATPASE INHIBITORS FOR USE IN THE PREVENTION OR TREATMENT OF METASTASIS” (UNIVERSITÄT BASEL, priority 2018, published 2022)", "key": {"BR16 CTC-derived cells": {"tested_on": "BR16 CTC-derived cells", "assay": "FDA-approved compound screen for CTC cluster dissociation (high content imaging)", "format": "cell-based, human", "conditions": "even at lowest concentration tested (0.1 μM), 2 days, hypoxia", "procedure": "In order to identify actionable vulnerabilities of CTC clusters, and to test whether the epigenetic and transcriptional features of clustered CTCs are reversible upon cluster dissociation into single cells the following steps were undertaken. First, the expression of all known cell-cell junction (CCJ) components in patient samples obtained from normal breast (TGCA REF), breast cancer (TOGA REF), single CTCs and CTC clusters were assessed (Aceto et al. Cell 2014). While breast cancer cells tend to only partially reduce their CCJ repertoire compared to normal breast cells, CTCs express only a small fraction of CCJ components, likely as a consequence to their increased motility. Yet, CTC clusters retain a higher number of CCJs as compared to single CTCs. […] To this end, 2′486 FDA-approved compounds were evaluated for their ability to dissociate clusters of human breast CTC-derived cells. Cluster dissociation was assessed using a high content screening microscope and comparing cells treated with each individual compound to steady state clustered BR16 cells and 40 μm-filtered BR16 single cell suspension as negative and positive controls, respectively (FIG. 4a). […] For the majority of the 2′486 FDA-approved compounds, when using a 5 μM concentration for 2 days in hypoxic conditions, no detectable reduction in cell viability (>70% viability) nor mean cluster size (>450 μm2) in BR16 CTC-derived cells was observed. […] These compounds include inhibitors of Na^+/K^+ ATPases (n=6), HDACs (n=2), nucleotide biosynthesis (n=5), kinases (n=4), GPCRs (n=2), cholesterol biosynthesis (n=1), nuclear export (n=1), tubulin (n=9), as well as DNA binding compounds (n=8) and antibiotics (n=1).\nA library containing 2,486 FDA-approved compounds was purchased from the Nexus Platform ETH Zurich. Each compound was resuspended using CTC medium at a 15 μM concentration and 20 μl were aliquoted in duplicate in a total of 64 Flat Bottom Clear Ultra Low attachment 96-well plates (Corning, Cat #3474).\nTo reduce cluster size in CTC derived cell lines, a 40 μm cell strainer was used (Corning, Cat #431750). […] Plates were incubated in hypoxia (5% oxygen) for 2 days and then 20 μl were transferred into a 96 well Black/clear Tissue culture treated plate (BD Falcon, Cat #353219) containing 40 μl of D-PBS (Invitrogen, Cat #14190169) and stained for 1 hr at 37° C. with a final concentration of 4 μM Hoechst 34580 (Invitrogen, Cat #H21486), 2 μM TMRM (Invitrogen, Cat #T668) and 4 μM TOTO-3 (Invitrogen, Cat #T3604). For each plate, two positive controls (non-treated cells) and two negative controls (non-treated and […] cells) were included. Z-factors were calculated per individual plate using the following formula: Z′=1−3(σs+σc)/|μs−μc|^3 (σ: standard deviation, μ: mean, s: positive control and c: negative control) (Martin et al., PLoS One 9, e88338, 2014) and ranged between 0.62-0.937. Plates were scanned using Operetta High Content Imaging System (Perkin Elmer) and cluster analysis was performed using Harmony High Content Imaging and Analysis Software (Perkin Elmer)."}, "[1]": {"tested_on": "BRx50 human CTC-derived cells", "assay": "FDA-approved compound screen for CTC cluster dissociation (high content imaging)", "format": "cell-based", "conditions": "even at lowest concentration tested (0.1 μM)"}}, "data": [{"smiles": "C[C@@H]1O[C@@H](O[C@H]2C[C@@H](O)[C@]3(CO)[C@H]4[C@H](O)C[C@]5(C)[C@@H](C6=CC(=O)OC6)CC[C@]5(O)[C@@H]4CC[C@]3(O)C2)[C@H](O)[C@H](O)[C@H]1O", "note": "[ouabain, Ouabain]", "values": [{"measurement": "mean cluster size", "setting": "BR16 CTC-derived cells", "value": "significant decrease in mean cluster size"}, {"measurement": "mean cluster size", "setting": "[1]", "value": "significant decrease in mean cluster size"}]}]}
